From PMC8269107, “Lipidation of Temporin-1CEb Derivatives as a Tool for Activity Improvement, Pros and Cons of the Approach” (International Journal of Molecular Sciences, 2021)
Where a SMILES comes first, the peptide text is derived from it. [ ]: non-standard residue; d: D form. The star is where a group is joined. Lauroyl = CCCCCCCCCCCC(=O)*; Pentanoyl = CCCCC(=O)*; AEEA = NCCOCCOCC(=O)O; βAla = NCCC(=O)O

How the values were obtained:
[1] = Serum stability in 25% human serum (RP-UPLC); settings: male, amount of the intact compound, after 5 h of incubation in 25% human serum, 37 °C
Method: At the beginning of the experiment, 25% human serum (human serum, from human male AB plasma, Sigma-Aldrich) was centrifuged at 12,000 rpm for 10 min in order to remove the excessive amount of lipids in the serum preparation, and the supernatant was collected and incubated at 37 °C for 15 min under shaking. The assay was initiated upon the addition of the peptide to the serum yielding a final peptide concentration of 75 µg/mL. The 50 µL aliquots of the incubated mixtures were taken at the following time intervals: 0, 30, 60, 120, 240 and 300 min. The aliquots were mixed with 50 µL of absolute ethanol, incubated on ice for 15 min to precipitate serum proteins and then centrifuged (12,000 rpm, 10 min). The supernatants were collected and lyophilized. Dry samples were further dissolved in 100 µL of HPLC-grade water and then analyzed. […]
RP-UPLC analysis was performed using Nexera system (Shimadzu Europe GmbH, Duisburg, Germany) with C12 Jupiter Proteo column (150 × 2 mm, 90Å, 4 micron) (Phenomenex, USA) applying a linear aqueous acetonitrile gradient 1–80%B in 20 min using solutions A (0.1% TFA in water) and B (0.1%TFA in 80% acetonitrile) with a flow rate 0.6 mL/min and detection at 220 nm. The quantity of the intact peptide at each time point was expressed as a percentage of the peak area with respect to time “zero” (100%).

S. aureus PCM 2054 = type: cell-based, Staphylococcus aureus; settings: S. aureus PCM 2054, Mueller-Hinton broth + 1% human serum
Method: Additionally, we performed a comparative analysis of MICs obtained for the tested compounds against S. aureus PCM2054 in two types of growth medium, i.e., the standard MHB and MHB supplemented with 1% human serum and in the absence of 1% serum. The assay was performed as described in 4.3.1.

S. aureus = assay: LIVE/DEAD BacLight bacterial viability; type: cell-based, Staphylococcus aureus; settings: 0.39-25 µg/mL, 3 and 6 h of co-incubation
Method: Evaluation of the bacterial viability in the presence or absence of the tested compounds was performed according to the protocols developed for the laboratory kit LIVE/DEAD ®® BacLight TM Bacterial Viability Kits (Molecular Probes Europe BV, Amsterdam, The Netherlands). Briefly, late log phase cultures of E. coli and S. aureus in Luria-Bertani broth were harvested by centrifugation at 4000× g, the supernatant was removed, and pellets were resuspended in sterile water solution of 0.85% NaCl. Again, bacterial cells were centrifuged under the same conditions. In order to remove traces of growth, the medium washing step was repeated twice. At the end, pellets were resuspended in a fresh sterile 0.85% NaCl solution and diluted, yielding suspensions of E. coli, containing about 2 × 10^8 CFU/mL, and S. aureus with about 2 × 10^7 CFU/mL. Subsequently, 90 µL of bacterial suspensions (E. coli or S. aureus, respectively) were transferred to 96-well microtiter plates and 10 µL of the tested peptides were added to final concentrations ranging from 0.39 µg/mL to 25 µg/mL. […] Fluorescence was read with excitation wavelength set at 485 nm and emission wavelengths set at 530 nm (for green dye) and 630 nm (red dye) by means of CLARIOstar®® plate reader (BMG LABTECH, Germany).

## CCCCC(=O)NCCC(=O)N[C@@H](Cc1c[nH]cn1)C(=O)NCCOCCOCC(=O)N[C@H](C(=O)N[C@@H](CCCCN)C(=O)N[C@@H](CCCCN)C(=O)N[C@H](C(=O)N[C@@H](CC(C)C)C(=O)N[C@@H](CO)C(=O)N[C@@H](CCCCN)C(=O)N[C@H](C(=O)N[C@@H](CCCCN)C(=O)N[C@@H](CCCCN)C(=O)N[C@@H](CC(C)C)C(=O)N[C@@H](CC(C)C)C(N)=O)[C@@H](C)CC)[C@@H](C)CC)[C@@H](C)CC [C5-CAR-PEG-DK5] ({Pentanoyl-βAla}-H[AEEA]IKKILSKIKKLL-NH2)
[1]
  remaining at 5 h, 75 µg/mL: 77%

## CCCCC(=O)N[C@H](C(=O)N[C@@H](CCCCN)C(=O)N[C@@H](CCCCN)C(=O)N[C@H](C(=O)N[C@@H](CC(C)C)C(=O)N[C@@H](CO)C(=O)N[C@@H](CCCCN)C(=O)N[C@H](C(=O)N[C@@H](CCCCN)C(=O)N[C@@H](CCCCN)C(=O)N[C@@H](CC(C)C)C(=O)N[C@@H](CC(C)C)C(N)=O)[C@@H](C)CC)[C@@H](C)CC)[C@@H](C)CC [Compound C5-DK5] (Pentanoyl-IKKILSKIKKLL-NH2)
[1]
  remaining at 5 h, 75 µg/mL: 46.2%
S. aureus PCM 2054
  MIC: 25 µg/mL

## CCCCCCCCCCCC(=O)N[C@H](C(=O)N[C@@H](CCCCN)C(=O)N[C@@H](CCCCN)C(=O)N[C@H](C(=O)N[C@@H](CC(C)C)C(=O)N[C@@H](CO)C(=O)N[C@@H](CCCCN)C(=O)N[C@H](C(=O)N[C@@H](CCCCN)C(=O)N[C@@H](CCCCN)C(=O)N[C@@H](CC(C)C)C(=O)N[C@@H](CC(C)C)C(N)=O)[C@@H](C)CC)[C@@H](C)CC)[C@@H](C)CC [Compound C12-DK5] (Lauroyl-IKKILSKIKKLL-NH2)
S. aureus PCM 2054
  MIC: 25 µg/mL
S. aureus
  relative viability of S. aureus (live/dead): most active
